Values quoted from earlier work as cited in patent US20060275513A1, “Diet supplement for burning additional calories, providing sustained energy, supporting weight loss, and/or improving mental focus” (priority 2005, published 2006).

Settings: non-extended release format

Q: For `Cn1c(=O)c2c(ncn2C)n(C)c1=O` [Caffeine], which accepted half-life is on record?
A: Its accepted half-life is 3.5 to 5 h.
